One assay deals with T1, LSD1 (Homo sapiens, UniProt O60341).
T1 construct: made in house
In words: Biochemical assay for LSD-1 activity (luminescence, H3K4 dimethylated peptide substrate). The settings on record: average of two or more tests; 30 min preincubation of enzyme and compound; read-out: LSD1 PIC50 MEAN (converted). The method, then:
Biochemical Assay for LSD-1 Activity
The LSD-1 luminescence assay is performed in a buffer containing 25 mM Tris, pH 7.5, 50 mM potassium chloride, 0.02% heat-denatured BSA, 2 mM CHAPS and milliQ ultrapure water. […] The enzyme and test compound are allowed to incubate together for 30 minutes at room temperature. Two microliters of the substrate mix are then added to each well of the plate to initiate the reaction. The plates are covered, protected from light and allowed to incubate for two hours at room temperature. Then, 4 uL of HyPerBlu peroxide detection luminescence reagent (Lumigen/Beckman Coulter, cat# HPB-00005) is added to each well to quench the demethylase reaction and generate the peroxide-dependent luminescence signal. The plates are then incubated for 15-30 minutes in the dark at room temperature prior to being read for Luminescence using a Perkin Elmer Viewlux plate reader. Percent inhibition is calculated based on no compound and no enzyme controls, and inhibition curves are then plotted to determine PIC50 values.

The target of a further assay is T2, MAO-B (Homo sapiens, UniProt P27338).
T2 construct: purchased Gentest-BD Biosciences 456284
T2 sequence (P27338 1-520): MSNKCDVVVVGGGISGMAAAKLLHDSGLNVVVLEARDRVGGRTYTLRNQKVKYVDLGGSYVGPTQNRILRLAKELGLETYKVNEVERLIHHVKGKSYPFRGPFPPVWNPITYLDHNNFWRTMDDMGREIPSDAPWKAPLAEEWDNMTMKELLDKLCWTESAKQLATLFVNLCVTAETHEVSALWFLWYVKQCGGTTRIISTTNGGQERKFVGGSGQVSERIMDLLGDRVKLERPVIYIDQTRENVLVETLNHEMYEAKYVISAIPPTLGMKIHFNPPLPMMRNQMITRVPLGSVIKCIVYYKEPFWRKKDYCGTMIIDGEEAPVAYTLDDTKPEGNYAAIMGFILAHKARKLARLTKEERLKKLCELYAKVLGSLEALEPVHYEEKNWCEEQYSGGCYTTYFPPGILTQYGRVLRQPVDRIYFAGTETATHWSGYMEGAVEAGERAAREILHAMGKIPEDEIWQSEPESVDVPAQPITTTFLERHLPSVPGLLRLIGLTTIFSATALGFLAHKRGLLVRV
In words: Biochemical assay for MAO-B activity (FLINT, benzylamine/amplex red). To be noted: average of two or more tests; 30 min preincubation of enzyme and compound; read-out: MAOB PIC50 MEAN (converted). The protocol: Biochemical Assay for MAO-B Activity
The MAO-B FLINT assay is performed in a buffer containing 50 mM potassium phospate, pH 7.4, in milliQ ultrapure water. […] The enzyme and test compound are allowed to incubate together for 30 minutes at room temperature. Five microliters of the substrate mix are then added to each well of the plate to initiate the reaction. The plates are covered, protected from light and allowed to incubate for one hour at room temperature. […] Percent inhibition is calculated based on no compound and no enzyme controls, and inhibition curves are then plotted to determine PIC50 values.

Where a name gives a salt, the structure may show the parent alone.

In the case of `O=C(O)c1ccc(CN2CCC(CN[C@H]3C[C@@H]3c3ccccc3)CC2)cc1` (relative stereo) [Example 26, 4-((4-(((trans-2-phenylcyclopropyl)amino)methyl)piperidin-1-yl)methyl)benzoic acid], the IC50 on LSD1 is 200 nM; on MAO-B, 50100 nM.

For `c1ccc(C2C[C@@H]2NCC2CCCNC2)cc1` (stereo in doubt) [Example 16, [trans-2-Phenylcyclopropyl](3-piperidinylmethyl)amine], the figures for the IC50 on LSD1 and at MAO-B were 7.94 nM and 39800 nM, respectively. The like results for `N[C@H]1CC[C@H](CN[C@@H]2C[C@H]2c2ccccc2)CC1` (relative stereo) [Example 10, trans-4-({[trans-2-Phenylcyclopropyl]amino}methyl)cyclohexanamine] were, in that order, 7.94 nM and 7940 nM. The like results for `O=C(c1ccccc1)N1CCC(CN[C@@H]2C[C@H]2c2ccccc2)CC1` (relative stereo) [Example 14, Phenyl(4-(((trans-2-phenylcyclopropyl)amino)methyl)piperidin-1-yl)methanone] were, in that order, 126 nM and 39800 nM. The matching figures for `O=S(=O)(c1ccccc1)N1CCC(CN[C@@H]2C[C@H]2c2ccccc2)CC1` (relative stereo) [Example 13, trans-2-Phenyl-N-((1-(phenylsulfonyl)piperidin-4-yl)methyl)cyclopropanamine]: 50.1 nM and 5010 nM. Regarding `c1ccc([C@@H]2C[C@H]2NCC2CCN(Cc3ccncc3)CC2)cc1` (relative stereo) [Example 33, trans-2-Phenyl-N-((1-(pyridin-4-ylmethyl)piperidin-4-yl)methyl)cyclopropanamine], the IC50 at LSD1 was 15.8 nM; at MAO-B, 50100 nM.

On to `O=C(O)CCN1CCC(CN[C@@H]2C[C@H]2c2ccccc2)CC1` [Example 71, 3-(4-((((1R,2S)-2-Phenylcyclopropyl)amino)methyl)piperidin-1-yl)propanoic acid], for which the IC50 was 100 nM on LSD1 and 7940 nM on MAO-B.

`O=C(O)c1ccc(CCCN2CCC(CN[C@@H]3C[C@H]3c3ccccc3)CC2)cc1` [Example 30, 4-{3-[4-({[(1R,2S)-2-Phenylcyclopropyl]amino}methyl)-1-piperidinyl]propyl}benzoic acid 2 HCl]: the IC50 on LSD1 was 12.6 nM; on MAO-B it was 31600 nM. For the compound `Cc1noc(C)c1S(=O)(=O)N1CCC(CN[C@@H]2C[C@H]2c2ccccc2)CC1` (relative stereo) [Example 100, trans-N-((1-((3,5-dimethylisoxazol-4-yl)sulfonyl)piperidin-4-yl)methyl)-2-phenylcyclopropanamine], the values for the IC50 on LSD1 and on MAO-B were 79.4 nM and 15800 nM, respectively. Turning to `O=C(O)CCN1CC[C@H](CN[C@@H]2C[C@H]2c2ccccc2)C1` [Example 150, 3-((R)-3-((((1R,2S)-2-Phenylcyclopropyl)amino)methyl)pyrrolidin-1-yl)propanoic acid], the IC50 on LSD1 is 25.1 nM; on MAO-B, 79400 nM. As for `CC(=O)N(CC1CCNCC1)[C@@H]1C[C@H]1c1ccccc1` (relative stereo) [Example 17, N-(trans-2-Phenylcyclopropyl)-N-(piperidin-4-ylmethyl)acetamide], the figures for the IC50 on LSD1 and at MAO-B were 20000 nM and 63100 nM, respectively. The matching figures for `O=C(O)CN1CCC(CN[C@H]2C[C@@H]2c2ccccc2)CC1` (relative stereo) [Example 27, 2-(4-(((trans-2-phenylcyclopropyl)amino)methyl)piperidin-1-yl)acetic acid]: 200 nM and 63100 nM. The matching figures for `O=S(=O)(Nc1ccc([C@@H]2C[C@H]2NCC2CCNCC2)cc1)c1ccccc1` (relative stereo) [Example 91, N-(4-((trans)-2-((piperidin-4-ylmethyl)amino)cyclopropyl)phenyl)benzenesulfonamide]: 6.31 nM and 15800 nM. Turning to `CN(CC1CCNCC1)[C@H]1CC1c1ccccc1` (stereo partly shown) [Example 19], on MAO-B, the IC50 is 31600 nM. `O=C(O)c1ccc(CCN2CCC(CN[C@@H]3C[C@H]3c3ccccc3)CC2)cc1` [Example 123, 4-(2-(4-((((1R,2S)-2-phenylcyclopropyl)amino)methyl)piperidin-1-yl)ethyl)benzoic acid]: the IC50 at LSD1 is 31.6 nM; on MAO-B it was 20000 nM. On to `Cc1cc(CN2CCC(CN[C@@H]3C[C@H]3c3ccccc3)CC2)no1` (relative stereo) [Example 47, trans-N-((1-((5-Methylisoxazol-3-yl)methyl)piperidin-4-yl)methyl)-2-phenylcyclopropanamine], for which the values for the IC50 on LSD1 and on MAO-B were 100 nM and 15800 nM, respectively. The like results for `CC(C)(C)OC(=O)N1CCC(CN[C@H]2C[C@@H]2c2ccccc2)CC1` [Example 3, 1,1-Dimethylethyl 4-({[(1S,2R)-2-phenylcyclopropyl]amino}methyl)-1-piperidinecarboxylate] were, in that order, 631 nM and 7940 nM. The like results for `CC(C)(C)OC(=O)N1CCC(CN[C@@H]2C[C@H]2c2ccccc2)CC1` [Example 2, 1,1-Dimethylethyl 4-({[(1R,2S)-2-phenylcyclopropyl]amino}methyl)-1-piperidinecarboxylate] were, in that order, 39.8 nM and 631 nM.

For the compound `c1ccc([C@@H]2C[C@H]2NCC2CCCCC2)cc1` (relative stereo) [Example 7, trans-N-(Cyclohexylmethyl)-2-phenylcyclopropanamine], the IC50 at LSD1 is 158 nM; at MAO-B it was 398 nM. The matching figures for `O=C(O)c1ccc(CN2CCC(CN[C@@H]3C[C@H]3c3ccccc3)CC2)cc1` [Example 29, 4-((4-((((1R,2S)-2-phenylcyclopropyl)amino)methyl)piperidin-1-yl)methyl)benzoic acid]: 158 nM and 25100 nM. Turning to `OB1OCc2c(CN3CCC(CN[C@@H]4C[C@H]4c4ccccc4)CC3)cccc21` (relative stereo) [Example 55, 4-((4-(((trans-2-Phenylcyclopropyl)amino)methyl)piperidin-1-yl)methyl)benzo[c][1,2]oxaborol-1(3H)-ol], the IC50 on LSD1 was 25.1 nM; on MAO-B it was 7940 nM. As to `O=C(O)c1ccc(CN2CC[C@H](CN[C@@H]3C[C@H]3c3ccccc3)C2)cc1` [Example 28a, 4-{[(3R)-3-({[(1R,2S)-2-Phenylcyclopropyl]amino}methyl)-1-pyrrolidinyl]methyl}benzoic acid], the IC50 is 158 nM on LSD1 and 31600 nM at MAO-B.

As to `O=C(OCc1ccccc1)N1CCC(CN[C@@H]2C[C@H]2c2ccccc2)CC1` (relative stereo) [Example 18, Benzyl 4-(((trans-2-phenylcyclopropyl)amino)methyl)piperidine-1-carboxylate], the IC50 on LSD1 was 31.6 nM; at MAO-B, 631 nM.

On to `c1ccc(C2C[C@@H]2NCC2CNCCO2)cc1` (stereo in doubt) [Example 25, N-(2-Morpholinylmethyl)-trans-2-phenylcyclopropanamine], for which the IC50 at LSD1 is 20 nM; on MAO-B it was 12600 nM.

With `CN1CCC(CN[C@@H]2C[C@H]2c2ccccc2)CC1` (relative stereo) [Example 20, [(1-Methyl-4-piperidinyl)methyl][trans-2-phenylcyclopropyl]amine], the IC50 on LSD1 is 6.31 nM; on MAO-B, 25100 nM. With `O=C(Nc1ccccc1)N1CCC(CN[C@@H]2C[C@H]2c2ccccc2)CC1` (relative stereo) [Example 12, N-Phenyl-4-(((trans-2-phenylcyclopropyl)amino)methyl)piperidine-1-carboxamide], the values for the IC50 on LSD1 and on MAO-B were 79.4 nM and 2000 nM, respectively. Turning to `CS(=O)(=O)c1ccc(CN2CCC(CN[C@@H]3C[C@H]3c3ccccc3)CC2)cc1` (relative stereo) [Example 43, trans-N-((1-(4-(Methylsulfonyl)benzyl)piperidin-4-yl)methyl)-2-phenylcyclopropanamine], the IC50 is 6.31 nM on LSD1 and 501 nM on MAO-B. As for `CC(N[C@H]1CC1c1ccccc1)C1CCNCC1` (stereo in doubt) [Example 24, [trans-2-Phenylcyclopropyl][1-(4-piperidinyl)ethyl]amine], the IC50 on LSD1 is 10 nM; at MAO-B it was 63100 nM.
